Experimental data as given in patent publication US9512178B2, “Neurogenic brain-derived neurotrophic factor peptides” (Research Foundation for Mental Hygiene, Inc., priority 2012, dated 2016).

Tests used:
[1] = tested on: BDNF and TrkB; test: Induction of BDNF and TrkB expression after pre-treatment with CHX or K252a; assay type: cell-based, mouse; details: two days of treatment
Procedure: (§1) Peptides were dissolved in water in serial dilutions of 10 mM, 1 mM, 100 μM and 10 μM from which the necessary amount was added directly to the culture medium to a final concentration of 0.05 μM, 1 μM, or 10 μM. The BDNF (Peprotech, NJ, USA) was used as a reference in concentrations of 20 ng/ml (0.79 nM) and 100 ng/ml (3.95 nM). Cycloheximide (CHX) (Sigma-Aldrich, St Louis, Mo., USA) was used for blocking protein synthesis. CHX original stock was 100 mg/ml (355.4 mM) in DMSO; from a second stock of 35.54 mM in DMSO, the dilutions were made to the final concentrations of 100 μM. The K252a (CALBIOCHEM/EMD) was used to inhibit the TrkB Receptor. From a stock of 100 μM in DMSO, K252a was diluted to a final working concentration of 200 nM. The E18 primary hippocampal cells were pre-treated with CHX or K252a 1 h prior to the addition of the peptides or BDNF and a time course of these treatments for 15 min, 60 min and 2 days was studied.
To evaluate whether the effect of B-5 and B-3 in induction of the expression of BDNF and TrkB was via the activation of the TrkB receptor and required signal transduction via TrkB and new protein synthesis, mouse embryonic E18 cultured hippocampal cells were pre-treated with the protein synthesis inhibitor, cycloheximide (CHX) or the Trk inhibitor K252a for 1 h, and then added Peptide B-5 at a concentration of 0.1 μM (the dose that gave the maximum induction of BDNF expression, FIGS. 5A and B) or BDNF 20 ng/ml as a positive control (FIG. 7C,D). A time course of these treatments was studied with Peptide B-5 or BDNF for 15 min, 60 min and two days.

[2] = biological target: T1, TrkB receptor (Mus musculus, UniProt P15209); test: TrkB phosphorylation (Tyr 706) and TrkB level in primary E18 hippocampal cells, with or without K252a; assay type: cell-based; details: K252a pretreatment 1 h (200 nM), then BDNF or peptides B-5 or B-3 for 5 min
T1 construct: endogenous in cells; host or cells: primary hippocampal neurons from embryonic day 18 C57BL/6 mice
Procedure: as §1
(§2) Following treatment in 6-well plates, cells were washed 2× in glucose buffered saline, GBS (5.4 mM KCl, 138 mM NaCl, 22 mM glucose, and 2 mM Na—KPO pH 7.2), and then lysed by 5 min incubation on ice in 100 or 150 μl of ice-cold RIPA buffer (PBS, 1% w/v NP-40 from Fisher Scientific, 0.1% w/v SDS, and 0.5% w/v sodium desoxycholate) containing 1 mM AEBSF (Gold Biotechnology, St. Louis, Mo., USA), 10 μg/ml aprotinin (Sigma-Aldrich, St. Louis, Mo., USA), and 20 μg/ml of leupeptin and pepstatin (US Biochemicals, Cleveland, Ohio, USA), and phosphatase inhibitors: NaF, Na orthovanadate, (3-glycerophosphate, and microcystein (Sigma-Aldrich, St. Louis, Mo., USA). Extracts were prepared by collecting and pooling a minimum of 2 wells by scraping, and lysates were centrifuged at 20,000×g for 10 min at 4° C. Protein concentration of each cell lysate was determined using the BCA kit (Thermo Scientific, Rockford, Ill., USA). The lysates (7.5-20 μg total protein) were separated on 10% SDS-PAGE gels (except for BDNF where 12% gels were employed) and transferred to 0.45 μm PVDF membrane (Pall, Pensacola, Fla., USA) for probing with antibodies as noted. Blots were blocked for 1 hr at 37° C. in 1×TBST (0.05% Tween 20 in TBS) containing 5% w/v blotting grade dry milk (Bio-rad, Hercules, Calif., USA), incubated in primary antibody overnight in blocking buffer at 4° C., washed 3×10 min in TBST at room temperature, followed by incubation with secondary antibody, i.e., peroxidase-conjugated anti-mouse or anti rabbit IgG (Jackson ImmunoResearch Laboratories, West Grove, Pa., USA) diluted in blocking buffer. Blots were washed 3×10 min in TBST and immunoreactive protein bands were visualized with enhanced chemiluminescence (ECL) reagents (Pierce, Rockford, Ill., USA). The ECL films of the blots were scanned and analyzed using Multi Gauge software version 3.0 (Fujifilm, Tokyo, Japan).
The following primary antibodies were used: rabbit polyclonal anti-NFM (1:1000; Chemicon/Millipore, Billerica, Mass., USA); mouse monoclonal anti-NeuN, clone A60 (1:500; Millipore, Billerica, Mass., USA); rabbit polyclonal anti-Tuj-1, (3—III-tubulin (Covance; 1:800, Emeryville, Calif., USA); mouse monoclonal SMI 52 to the adult isoforms of MAP-2, MAP2a,b (1:1000; Covance, Emeryvilly, Calif., USA); rabbit polyclonal anti-Synapsin I (1:2000; Stressgen, Farmingdale, N.Y., USA); rabbit monoclonal anti-PSD95 (1:1000; Cell signaling, Danvers, Mass., USA); anti tau 92e (1:10000); mouse monoclonal anti-BDNF (1:1000; Calbiochem, Gibbstown, N.J., USA); rabbit polyclonal anti-TrkB (total) (1:500; Santa Cruz Biotechnology, Santa Cruz, Calif., USA); rabbit polyclonal anti-pTrkB (Tyr706) (1:400; Santa Cruz Biotechnology, Santa Cruz, Calif., USA), TrkC (1:1000; Cruz Biotechnology, Santa Cruz, Calif., USA); and pTrkY490 (1:500; Upstate USA Inc., Charlottesville, Va., USA). For loading control, the blots were developed with rabbit polyclonal antibody to GAPDH (1:2000; Santa Cruz Biotechnology, Santa Cruz, Calif., USA). […]

[3] = tested on: E18 primary hippocampal neurons; test: Western blots of neuronal markers, densitometry; assay type: cell-based, mouse; details: 5 days
Procedure: as §2
(§3) The following primary antibodies were used: rabbit polyclonal anti-NFM (1:1000; Chemicon/Millipore, Billerica, Mass., USA); mouse monoclonal anti-NeuN, clone A60 (1:500; Millipore, Billerica, Mass., USA); rabbit polyclonal anti-Tuj-1, (3—III-tubulin (Covance; 1:800, Emeryville, Calif., USA); mouse monoclonal SMI 52 to the adult isoforms of MAP-2, MAP2a,b (1:1000; Covance, Emeryvilly, Calif., USA); rabbit polyclonal anti-Synapsin I (1:2000; Stressgen, Farmingdale, N.Y., USA); rabbit monoclonal anti-PSD95 (1:1000; Cell signaling, Danvers, Mass., USA); anti tau 92e (1:10000); mouse monoclonal anti-BDNF (1:1000; Calbiochem, Gibbstown, N.J., USA); rabbit polyclonal anti-TrkB (total) (1:500; Santa Cruz Biotechnology, Santa Cruz, Calif., USA); rabbit polyclonal anti-pTrkB (Tyr706) (1:400; Santa Cruz Biotechnology, Santa Cruz, Calif., USA), TrkC (1:1000; Cruz Biotechnology, Santa Cruz, Calif., USA); and pTrkY490 (1:500; Upstate USA Inc., Charlottesville, Va., USA). For loading control, the blots were developed with rabbit polyclonal antibody to GAPDH (1:2000; Santa Cruz Biotechnology, Santa Cruz, Calif., USA).
To biochemically study the effect of BDNF peptides in inducing expression of neuronal markers, protein samples were recovered from cells treated with peptides B-5, B-4, B-3, or vehicle for five days. As a positive control, protein samples were collected from cells treated with BDNF at 20 ng/ml (0.79 nM) or 100 ng/ml (3.95 nM) (FIG. 3D, E). Western blots of the cell lysates were developed with antibodies to Synapsin I (presynaptic marker), PSD95 (postsynaptic marker), NeuN (late neuronal marker), NFM (early neuronal marker), MAP2 (dendritic marker), 0-IIItubulin (early neuronal marker), and tau 92e (axonal marker).

[4] = tested on: BDNF; test: BDNF expression, Western blot, 5 days treatment; assay type: cell-based, mouse; details: vs control medium
Procedure: as §2, §3
To investigate the molecular mechanism by which the BDNF peptides promoted neurogenic/neurotrophic activities, the hippocampal primary cultured neurons were treated with the peptides or BDNF for five days and compared with the control medium treated cells.

[5] = tested on: mouse E18 primary hippocampal neurons; test: Toxicity of the peptides: phase contrast morphology and LDH assay, 5 days treatment; assay type: cell-based; details: 1 μM
Text: To screen these peptides, primary neuronal cell cultures were used from embryonic day 18 (E18) C57BL/6 mouse hippocampus. At the fourth day in vitro (DIV), the culture medium was exchanged with the medium containing the peptides. The primary neuronal cultures were established as taught in the art (see, e.g., Cardenas-Aguayo Mdel, Santa-Olalla et al. 2003, hereby incorporate by reference). Briefly, C57BL/6 time pregnant E18 female mice from Charles River Labs were anesthetized and killed by cervical dislocation following our Institutional Animal Care and Use Committee (IACUC) regulations and approved protocol. Embryos were removed and placed in cold Hibernate A (available from Brain bits, Springfield, Ill., USA), and all of the following steps were performed in ice-cold Hibernate A, under a stereoscopic (dissection) microscope placed in a laminar flow hood. Fetal brains were removed carefully and fore brain were separated. Then, the hippocampus, including the cortex surrounding the area of the hippocampus, was dissected and cut into small pieces using microsurgical scissors. The cut tissue was transferred with number 5 forceps to 15 ml tubes containing 0.1% trypsin in Versene (Invitrogen Life Technologies, Grand Island, N.Y., USA) and incubated for 15 min at 37° C. followed by inactivation with 10% fetal bovine serum (FBS) in Neurobasal complete medium (Neurobasal Medium supplemented with 2×B-27, 0.30% glutamine, and penicillin/streptomycin 0.1 mg/ml and 0.1 U/ml respectively). All medium components were purchased from Invitrogen, Grand Island, N.Y., USA. […]
To study any toxic effect of the peptides, mouse E18 primary hippocampal neurons were treated with the five BDNF peptides individually for up to 5 days at different doses [5 nM, 25 nM, 50 nM (data not shown), 100 nM (0.1 μM), 1000 nM (1 μM), and 10,000 nM (10 μM)]. […] Accordingly, there was no significant change in the viability of cells treated with any of the peptides as evaluated by the lactate dehydrogenase (LDH) assay (see FIG. 2B). […]

T1 sequence (P15209 32-821): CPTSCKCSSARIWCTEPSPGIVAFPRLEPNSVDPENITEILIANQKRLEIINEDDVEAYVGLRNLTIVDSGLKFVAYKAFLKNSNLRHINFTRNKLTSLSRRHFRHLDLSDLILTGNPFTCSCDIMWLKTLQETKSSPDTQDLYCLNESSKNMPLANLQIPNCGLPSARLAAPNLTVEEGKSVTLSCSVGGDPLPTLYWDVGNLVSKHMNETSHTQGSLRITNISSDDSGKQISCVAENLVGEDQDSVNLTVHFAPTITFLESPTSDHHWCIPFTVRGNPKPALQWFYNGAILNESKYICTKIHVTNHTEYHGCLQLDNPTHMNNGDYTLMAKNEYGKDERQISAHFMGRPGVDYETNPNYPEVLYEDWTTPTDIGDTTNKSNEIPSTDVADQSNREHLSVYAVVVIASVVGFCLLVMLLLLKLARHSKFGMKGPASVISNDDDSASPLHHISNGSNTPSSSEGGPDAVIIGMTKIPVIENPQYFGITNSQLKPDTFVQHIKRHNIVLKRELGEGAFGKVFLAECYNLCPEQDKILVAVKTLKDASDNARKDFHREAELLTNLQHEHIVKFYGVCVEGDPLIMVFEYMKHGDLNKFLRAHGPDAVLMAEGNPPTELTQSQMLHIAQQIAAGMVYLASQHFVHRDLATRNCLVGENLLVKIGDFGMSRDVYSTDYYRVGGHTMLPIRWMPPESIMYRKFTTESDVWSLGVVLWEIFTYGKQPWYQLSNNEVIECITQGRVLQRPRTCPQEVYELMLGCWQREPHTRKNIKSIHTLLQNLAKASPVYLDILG

Compound: C[C@@H]1C[C@@H]([C@H](O)CC2CC(=O)NC(=O)C2)C(=O)[C@@H](C)C1 [CHX, Cycloheximide, reference compound]
- block of the increase in expression of BDNF caused by BDNF peptides or BDNF ([1]; CHX pre-exposure 1 h (100 μM)): can be blocked

Compound: COC(=O)[C@@]1(O)C[C@H]2O[C@]1(C)n1c3ccccc3c3c4c(c5c6ccccc6n2c5c31)C(=O)NC4 [Peptide K252a, reference compound]
- inhibition of the phosphorylation of TrkB at Tyrosine 706 [2]: clear inhibition
- block of the increase in expression of BDNF caused by BDNF peptides or BDNF ([1]; K252a pre-exposure 1 h (200 nM)): can be blocked

Compound: Ac-D-K-R-H-CONH2 [Peptide B-4]
- expression of NeuN (Western blot) ([3]; 0.1 μM): increased the expression of NeuN
- expression of PSD95 (Western blot) ([3]; 0.1 μM): significant increment
- level of tau (92e antibody, Western blot) [3]: Neither BNDF nor peptides B-3, B-4 or B-5 had any significant effect
- expression of BDNF (Western blot) [4]: induced the expression of BDNF

Compound: Ac-R-R-G-E-CONH2 [Peptide B-1]
- cell death (LDH assay) vs vehicle treated cells [5]: significant reduction in cell death
